Test results taken from patent US9908868B2, “Isoindolinone compounds as GPR119 modulators for the treatment of diabetes, obesity, dyslipidemia and related disorders” (SANOFI, priority 2014, dated 2018).

Biological target: T1, human GPR119 (Homo sapiens, UniProt Q8TDV5)
T1 construct: expressed in transfected cells
T1 sequence (Q8TDV5 1-335): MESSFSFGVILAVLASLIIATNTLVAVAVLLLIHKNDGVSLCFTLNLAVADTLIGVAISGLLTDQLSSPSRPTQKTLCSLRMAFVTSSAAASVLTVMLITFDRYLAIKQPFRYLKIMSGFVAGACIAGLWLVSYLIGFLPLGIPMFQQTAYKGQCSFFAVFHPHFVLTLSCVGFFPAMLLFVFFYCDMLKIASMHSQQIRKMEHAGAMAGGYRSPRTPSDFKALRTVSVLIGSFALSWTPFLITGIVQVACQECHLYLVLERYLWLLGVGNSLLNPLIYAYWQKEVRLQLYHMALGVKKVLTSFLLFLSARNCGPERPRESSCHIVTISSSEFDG
Assay: Functional cellular assay measuring GPR119-mediated cAMP release (HTRF) in HEK-293 cells stably expressing recombinant human GPR119
Format: cell-based
Conditions: cAMP response, cell line expressing human GPR119, 30 minutes at room temperature
Method in brief: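 HEK-293 cells stably expressing recombinant human GPR119, suspended at 400000 cells/mL in HBSS/20 mM HEPES/0.1% BSA/2 mM IBMX, exposed to compound for 30 minutes at room temperature. cAMP detected by HTRF (665/620 nm ratio) after 1 h with reagents in lysis buffer. EC50 taken as concentration giving 50% of maximal activation.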

| SMILES | EC50 |
| --- | --- |
| O=C(CN1Cc2c(F)cc(N3CC[C@@H](Oc4ccc(OCC5CC5)nc4)C3=O)cc2C1=O)N1CCC(O)CC1 [Example 4-22, 6-[(3R)-3-[[6-(cyclopropylmethoxy)-3-pyridyl]oxy]-2-oxo-pyrrolidin-1-yl]-4-fluoro-2-[2-(4-hydroxy-1-piperidyl)-2-oxo-ethyl]isoindolin-1-one] | 88 nM |
| COCCNC(=O)CN1Cc2c(F)cc(N3CC[C@@H](Oc4ccc(OCC5CC5)nc4)C3=O)cc2C1=O [Example 4-23, 2-[6-[(3R)-3-[[6-(cyclopropylmethoxy)-3-pyridyl]oxy]-2-oxo-pyrrolidin-1-yl]-4-fluoro-1-oxo-isoindolin-2-yl]-N-(2-methoxyethyl)acetamide] | 157 nM |
| CN(C)C(=O)CN1Cc2c(F)cc(N3CC[C@@H](Oc4ccc(OCC5CC5)nc4)C3=O)cc2C1=O [Example 4-25, 2-[6-[(3R)-3-[[6-(cyclopropylmethoxy)-3-pyridyl]oxy]-2-oxo-pyrrolidin-1-yl]-4-fluoro-1-oxo-isoindolin-2-yl]-N,N-dimethyl-acetamide] | 80 nM |
| O=C(CN1Cc2c(F)cc(N3CC[C@@H](Oc4ccc(OCCC5CC5)nc4)C3=O)cc2C1=O)N1CCCC1 [Example 4-26, 6-[(3R)-3-[[6-(2-cyclopropylethoxy)-3-pyridyl]oxy]-2-oxo-pyrrolidin-1-yl]-4-fluoro-2-(2-oxo-2-pyrrolidin-1-yl-ethyl)isoindolin-1-one] | 48 nM |
| CN(C)C(=O)CN1Cc2c(F)cc(N3CC[C@@H](Oc4ccc(OCCC5CC5)nc4)C3=O)cc2C1=O [Example 4-27, 2-[6-[(3R)-3-[[6-(2-cyclopropylethoxy)-3-pyridyl]oxy]-2-oxo-pyrrolidin-1-yl]-4-fluoro-1-oxo-isoindolin-2-yl]-N,N-dimethyl-acetamide] | 46 nM |
| O=C(CN1Cc2c(F)cc(N3CC[C@@H](Oc4ccc(OCCC5CC5)nc4)C3=O)cc2C1=O)NCCO [Example 4-29, 2-[6-[(3R)-3-[[6-(2-cyclopropylethoxy)-3-pyridyl]oxy]-2-oxo-pyrrolidin-1-yl]-4-fluoro-1-oxo-isoindolin-2-yl]-N-(2-hydroxyethyl)acetamide] | 157 nM |
| O=C(CN1Cc2ccc(N3CC[C@@H](Oc4ccc(OCC5CC5)nc4)C3=O)cc2C1=O)NCc1nnn[nH]1 [Example 4-30, 2-[6-[(3R)-3-[[6-(cyclopropylmethoxy)-3-pyridyl]oxy]-2-oxo-pyrrolidin-1-yl]-1-oxo-isoindolin-2-yl]-N-(1H-tetrazol-5-ylmethyl)acetamide] | 749 nM |
| O=C(CN1Cc2ccc(N3CC[C@@H](Oc4ccc(OCC5CC5)nc4)C3=O)cc2C1=O)N(CCO)CCO [Example 4-33, 2-[6-[(3R)-3-[[6-(cyclopropylmethoxy)-3-pyridyl]oxy]-2-oxo-pyrrolidin-1-yl]-1-oxo-isoindolin-2-yl]-N,N-bis(2-hydroxyethyl)acetamide] | 598 nM |
| O=C(CN1Cc2ccc(N3CC[C@@H](Oc4ccc(OCC5CC5)nc4)C3=O)cc2C1=O)NC[C@H](O)CO [Example 4-34, 2-[6-[(3R)-3-[[6-(cyclopropylmethoxy)-3-pyridyl]oxy]-2-oxo-pyrrolidin-1-yl]-1-oxo-isoindolin-2-yl]-N-[(2S)-2,3-dihydroxypropyl]acetamide] | 541 nM |
| O=C(CN1Cc2ccc(N3CC[C@@H](Oc4ccc(OCC(F)(F)F)nc4)C3=O)cc2C1=O)NC1CC1 [Example 4-36, N-cyclopropyl-2-[1-oxo-6-[(3R)-2-oxo-3-[[6-(2,2,2-trifluoroethoxy)-3-pyridyl]oxy]pyrrolidin-1-yl]isoindolin-2-yl]acetamide] | 562 nM |
| CC(C)NC(=O)CN1Cc2ccc(N3CC[C@@H](Oc4ccc(OCC(F)(F)F)nc4)C3=O)cc2C1=O [Example 4-37, N-isopropyl-2-[1-oxo-6-[(3R)-2-oxo-3-[[6-(2,2,2-trifluoroethoxy)-3-pyridyl]oxy]pyrrolidin-1-yl]isoindolin-2-yl]acetamide] | 232 nM |
| CNC(=O)CN1Cc2ccc(N3CC[C@@H](Oc4ccc(OCC(F)(F)F)nc4)C3=O)cc2C1=O [Example 4-38, N-methyl-2-[1-oxo-6-[(3R)-2-oxo-3-[[6-(2,2,2-trifluoroethoxy)-3-pyridyl]oxy]pyrrolidin-1-yl]isoindolin-2-yl]acetamide] | 131 nM |
| CCNC(=O)CN1Cc2ccc(N3CC[C@@H](Oc4ccc(OCC(F)(F)F)nc4)C3=O)cc2C1=O [Example 4-39, N-ethyl-2-[1-oxo-6-[(3R)-2-oxo-3-[[6-(2,2,2-trifluoroethoxy)-3-pyridyl]oxy]pyrrolidin-1-yl]isoindolin-2-yl]acetamide] | 205 nM |
| CCN(CC)C(=O)CN1Cc2ccc(N3CC[C@@H](Oc4ccc(OCC(F)(F)F)nc4)C3=O)cc2C1=O [Example 4-41, N,N-diethyl-2-[1-oxo-6-[(3R)-2-oxo-3-[[6-(2,2,2-trifluoroethoxy)-3-pyridyl]oxy]pyrrolidin-1-yl]isoindolin-2-yl]acetamide] | 40 nM |
| CCOc1ccc(O[C@@H]2CCN(c3cc(F)c4c(c3)C(=O)N(CC#N)C4)C2=O)cn1 [Example 5-01, 2-[6-[(3R)-3-[(6-ethoxy-3-pyridyl)oxy]-2-oxo-pyrrolidin-1-yl]-4-fluoro-1-oxo-isoindolin-2-yl]acetonitrile] | 67 nM |
| CCOc1ccc(O[C@@H]2CCN(c3cc(F)c4c(c3)C(=O)N(CC(=O)O)C4)C2=O)cn1 [Example 5-02, 2-[6-[(3R)-3-[(6-ethoxy-3-pyridyl)oxy]-2-oxo-pyrrolidin-1-yl]-4-fluoro-1-oxo-isoindolin-2-yl]acetic acid] | 6080 nM |

The remaining lines, values ahead:

| EC50 | SMILES |
| --- | --- |
| 381 nM | CCOc1ccc(O[C@@H]2CCN(c3cc(F)c4c(c3)C(=O)N(CC(=O)NCCOC)C4)C2=O)cn1 [Example 4-18, 2-[6-[(3R)-3-[(6-ethoxy-3-pyridyl)oxy]-2-oxo-pyrrolidin-1-yl]-4-fluoro-1-oxo-isoindolin-2-yl]-N-(2-methoxyethyl)acetamide] |
| 297 nM | CCOc1ccc(O[C@@H]2CCN(c3cc(F)c4c(c3)C(=O)N(CC(=O)N3CCC(O)CC3)C4)C2=O)cn1 [Example 4-19, 6-[(3R)-3-[(6-ethoxy-3-pyridyl)oxy]-2-oxo-pyrrolidin-1-yl]-4-fluoro-2-[2-(4-hydroxy-1-piperidyl)-2-oxo-ethyl]isoindolin-1-one] |
| 62 nM | COCCNC(=O)CN1Cc2c(F)cc(N3CC[C@@H](Oc4ccc(OCCC5CC5)nc4)C3=O)cc2C1=O [Example 4-20, 2-[6-[(3R)-3-[[6-(2-cyclopropylethoxy)-3-pyridyl]oxy]-2-oxo-pyrrolidin-1-yl]-4-fluoro-1-oxo-isoindolin-2-yl]-N-(2-methoxyethyl)acetamide] |
| 222 nM | CCOc1ccc(O[C@@H]2CCN(c3cc(F)c4c(c3)C(=O)N(CC(=O)N(C)C)C4)C2=O)cn1 [Example 4-21, 2-[6-[(3R)-3-[(6-ethoxy-3-pyridyl)oxy]-2-oxo-pyrrolidin-1-yl]-4-fluoro-1-oxo-isoindolin-2-yl]-N,N-dimethyl-acetamide] |
| 266 nM | O=C(CN1Cc2c(F)cc(N3CC[C@@H](Oc4ccc(OCC5CC5)nc4)C3=O)cc2C1=O)NCCO [Example 4-24, 2-[6-[(3R)-3-[[6-(cyclopropylmethoxy)-3-pyridyl]oxy]-2-oxo-pyrrolidin-1-yl]-4-fluoro-1-oxo-isoindolin-2-yl]-N-(2-hydroxyethyl)acetamide] |
| 49 nM | CNC(=O)CN1Cc2c(F)cc(N3CC[C@@H](Oc4ccc(OCCC5CC5)nc4)C3=O)cc2C1=O [Example 4-28, 2-[6-[(3R)-3-[[6-(2-cyclopropylethoxy)-3-pyridyl]oxy]-2-oxo-pyrrolidin-1-yl]-4-fluoro-1-oxo-isoindolin-2-yl]-N-methyl-acetamide] |
| 153 nM | COC(=O)CNC(=O)CN1Cc2ccc(N3CC[C@@H](Oc4ccc(OCC5CC5)nc4)C3=O)cc2C1=O [Example 4-31, methyl 2-[[2-[6-[(3R)-3-[[6-(cyclopropylmethoxy)-3-pyridyl]oxy]-2-oxo-pyrrolidin-1-yl]-1-oxo-isoindolin-2-yl]acetyl]amino]acetate] |
| 448 nM | O=C(CN1Cc2ccc(N3CC[C@@H](Oc4ccc(OCC5CC5)nc4)C3=O)cc2C1=O)NC(CO)CO [Example 4-32, 2-[6-[(3R)-3-[[6-(cyclopropylmethoxy)-3-pyridyl]oxy]-2-oxo-pyrrolidin-1-yl]-1-oxo-isoindolin-2-yl]-N-[2-hydroxy-1-(hydroxymethyl)ethyl]acetamide] |
| 556 nM | O=C(CN1Cc2ccc(N3CC[C@@H](Oc4ccc(OCC5CC5)nc4)C3=O)cc2C1=O)NC[C@@H](O)CO [Example 4-35, 2-[6-[(3R)-3-[[6-(cyclopropylmethoxy)-3-pyridyl]oxy]-2-oxo-pyrrolidin-1-yl]-1-oxo-isoindolin-2-yl]-N-[(2R)-2,3-dihydroxypropyl]acetamide] |
| 43 nM | O=C(CN1Cc2ccc(N3CC[C@@H](Oc4ccc(OCC(F)(F)F)nc4)C3=O)cc2C1=O)N1CCCC1 [Example 4-40, 2-(2-oxo-2-pyrrolidin-1-yl-ethyl)-6-[(3R)-2-oxo-3-[[6-(2,2,2-trifluoroethoxy)-3-pyridyl]oxy]pyrrolidin-1-yl]isoindolin-1-one] |
| 39 nM | O=C(CN1Cc2ccc(N3CC[C@@H](Oc4ccc(OCC(F)(F)F)nc4)C3=O)cc2C1=O)N1CCC1 [Example 4-42, 2-[2-(azetidin-1-yl)-2-oxo-ethyl]-6-[(3R)-2-oxo-3-[[6-(2,2,2-trifluoroethoxy)-3-pyridyl]oxy]pyrrolidin-1-yl]isoindolin-1-one] |
